Experimental data as given in US5859019A, “Methods for protecting against cardiac ischemia by administering adenosine A2a receptor antagonists” (priority 1997, dated 1999).

Tests used:
[1] = system: rat brain A1 and A2 receptors; details: rat brain adenosine receptors, radioligand binding; cited from earlier work
[2] = system: ventricular cells cultured from chick embryos; experiment: Hypoxia-induced injury / preconditioning of cultured ventricular cells (% cells killed, CK released); format: cell-based; details: for EC (maximal effect): Gallus gallus, agonist replacing preconditioning hypoxia, read-out: Concentration giving maximal preconditioning effect; for Ability to replace preconditioning hypoxia (protection against injury by ninety-minute hypoxia; % cells killed, CK released): agent given for 5 min in place of preconditioning hypoxia, before 90-min hypoxia, adenosine 10 μM, R-PIA 10 μM; for Ability to replace preconditioning hypoxia (protection against injury by ninety-minute hypoxia; % cells killed, CK released) / Effect on protection by preconditioning hypoxia (% cells killed, CK released): CGS21680 1 μM; for Effect on protection by preconditioning hypoxia (% cells killed, CK released): agent present during five-minute preconditioning hypoxia, CSC 1 μM, 8-SPT 100 μM, isoproterenol 0.3 μM, forskolin 1 μM, BayK 8644 0.1 μM
Method: Ventricular cells were cultured from chick embryos 14 days in ovo, according to a previously described procedure (20, 27). Cells were plated at a density of 400,000 cells per ml and cultivated in a humidified 5% CO2 -95% air mixture at 37° C. […] For preconditioning studies, the medium was changed to a HEPES-buffered medium containing (mM) 139 NaCl, 4.7 KCl, 0.5 MgCl2, 0.9 CaCl2, 5 HEPES (N-2-hydroxyethylpiperazine-N'-2-ethanesulfonic acid) and 2% fetal bovine serum, pH=7.4, 37° C. before exposing cells to the various conditions at 37° C. Control cells were maintained in the HEPES-buffered media under room air. Hypoxia was produced by placing the cells in a hypoxic incubator (NuAire) where O2 was replaced by N2. The % O2 was monitored by both an oxygen Fyrite Gas Analyzer (Bacharach) and an oxygen analyzer (Model OX630, Engineered Systems & Designs). Preconditioning was induced by exposing the cells to five minutes of hypoxia, termed preconditioning hypoxia, prior to a second ninety-minute hypoxia. Cells not subjected to preconditioning were exposed to ninety minutes of hypoxia only (nonpreconditioned cells). The extracellular pH was similarly maintained at 7.4 by HEPES in both preconditioned and nonpreconditioned cells. Determination of basal level of cell injury was made after parallel incubation of control cells under normal % O2. For preconditioned and nonpreconditioned cells, determination of cell injury was made at the end of the ninety-minute hypoxic period.
The extent of hypoxia-induced injury to the ventricular cell was quantitatively determined by the percentages of cells killed and by the amount of creatine kinase (CK) released into the media. To quantitate the % cells killed, cells were exposed to a trypsin-EDTA Hanks' balanced salt solution for 10 minutes for detachment after the various treatment, followed by centrifugation (300 × g for 10 minutes) and resuspension in culture media for counting in a hemocytometer. Only live cells sedimented and the cells counted represented those that survived (29). None of the sedimented cells subsequently counted included trypan blue. […] There was no protein or CK in the culture media following a second 300 × g centrifugation of resuspended cells previously treated with trypsin-EDTA. […] In contrast, the trypsin-EDTA media from cells exposed to 90 minutes of hypoxia contained substantial amount of proteins (0.15±0.03 mg, n=9) and CK activity (16±3 unit/mg protein, n=8). […] Because trypsin may cause further proteolysis of proteins and CK, the amount of protein and CK retained by the damaged cells in the trypsin-EDTA media may not accurately reflect those associated with the damaged cells. In support of the notion that exposure to 90 minutes of hypoxia caused significant cell injury and loss of membrane integrity, there was also marked release of LDH (hypoxia-exposed cells, 35.5±2.7, unit/mg, n=8, ±S.E. vs. control cells, 6.1±0.4 unit/mg, n=8) and proteins (hypoxia-exposed cells, 0.15±0.03 mg, n=8 vs. control cells, 0.034±0.01 mg, n=8) from the cells incubated under prolonged hypoxia. Thus, the cell viability assay separated out the hypoxia-damaged from the control normoxia-exposed cells. […] The amount of CK was measured as enzyme activity (unit/mg), and increases in CK activity above the control level were determined. The percentage of cells killed was calculated as the number of cells obtained from the control group (representing cells not subjected to any hypoxia or drug treatment) minus the number of cells from the treatment group divided by number of cells in control group multiplied by 100%.
To investigate the role of adenosine in mediating the preconditioning effect, the ventricular cells, instead of being exposed to the brief hypoxia, were incubated with adenosine (10 μM) for 5 minutes prior to the ninety minute hypoxia. In adenosine-treated cells, media were replaced with adenosine-free media for ten minutes prior to a ninety-minute hypoxic exposure. […]

[3] = system: ventricular cells cultured from chick embryos; experiment: 45Ca uptake in cultured ventricular cells; format: cell-based
Method: Determination of ^45 Ca uptake was made according to a modification of previously described method (20). Cultures were incubated with L-(3, 4, 5-^3 H, N)-leucine (152.2 Ci/mmol) for a 24 hour prior to ^45 Ca uptake. [^3 H] leucine incorporated into the cellular protein allowed normalization of ^45 Ca content to mg cell protein. After incubation with ^45 Ca-containing medium, cells were then washed free of ^45 Ca and solubilized for 2 hours with 1% sodium dodecyl sulfate and 10 mM sodium borate and the levels of ^3 H and ^45 Ca were determined. For all data comparing the effect of different agents on ^45 Ca uptake, one-way ANOVA analysis followed by group comparison with t-test was carried out at each time point of the ^45 Ca uptake. Cyclic AMP level was determined according to a previously described radioimmunoassay (27).

SMILES | A1/A2 ratio (A2a receptor selectivity ratio) [1] | further results
Cn1c(=O)c2c(nc(/C=C/c3cccc(NC(=O)CCC(=O)O)c3)n2C)n(C)c1=O [compound 24] | 250 | 
COc1cc(/C=C/c2nc3c(c(=O)n(C)c(=O)n3C)n2C)cc(OC)c1 [33b] | > 200 | 
CC(=O)Nc1cccc(/C=C/c2nc3c(c(=O)n(C)c(=O)n3C)n2C)c1 [compound 23] | 240 | 
OC[C@H]1O[C@@H](n2cnc3c(NC4CCCC4)nc(Cl)nc32)[C@H](O)[C@@H]1O [CCPA] |  | EC (maximal effect) [2]: 0.1 µM; Ability to replace preconditioning hypoxia (protection against injury by ninety-minute hypoxia; % cells killed, CK released) [2]: can replace preconditioning hypoxia and simulate preconditioning
COc1cc(/C=C/c2nc3c(c(=O)n(C)c(=O)n3C)n2C)cc(OC)c1OC(C)=O [compound 36] | 93 | 
COc1ccccc1/C=C/c1nc2c(c(=O)n(C)c(=O)n2C)n1C [17b] | 18 | 
Cn1c(=O)c2c(nc(/C=C/c3cc(F)cc(F)c3)n2C)n(C)c1=O [34b] | 230 | 
Cn1c(=O)c2c(nc(/C=C/c3cccc(C(F)(F)F)c3)n2C)n(C)c1=O [20b] | 25 | 
COc1ccc(/C=C/c2nc3c(c(=O)n(C)c(=O)n3C)n2C)c(OC)c1OC [43b] | 34 | 
COc1cccc(/C=C/c2nc3c(c(=O)n(C)c(=O)n3C)n2C)c1 [19b] | 64 | 
COc1ccc(/C=C/c2nc3c(c(=O)n(C)c(=O)n3C)n2C)cc1OC [32b] | 70 | 
COc1cc(/C=C/c2nc3c(c(=O)n(C)c(=O)n3C)n2C)cc(OC)c1OC [44b] | 70 | 
COC(=O)C1=C(C)NC(C)=C(C(=O)OC)C1c1ccccc1[N+](=O)[O-] [nifedipine] |  | Ability to replace preconditioning hypoxia (protection against injury by ninety-minute hypoxia; % cells killed, CK released) [2]: did not simulate preconditioning; Effect on attenuation of preconditioning by isoproterenol, forskolin and BayK 8644 ([2]; nifedipine 1 μM during preconditioning hypoxia): abolished; Effect on CGS21680-induced attenuation of preconditioning ([2]; nifedipine 1 μM with CGS21680 during preconditioning hypoxia): abolished the CGS21680-induced attenuation of cardioprotection; Effect on increase in calcium uptake by isoproterenol, forskolin and BayK 8644 ([3]; nifedipine): blocked the increase in calcium uptake
Cn1c(=O)c2c(nc(/C=C/c3cccc(NC(=O)OC(C)(C)C)c3)n2C)n(C)c1=O [compound 25] | 30 | 
COc1cc(/C=C/c2nc3c(c(=O)n(C)c(=O)n3C)n2C)cc(OC)c1O [compound 35] | 19 | 
COc1cc(/C=C/c2nc3c([nH]2)c(=O)n(C)c(=O)n3C)cc(OC)c1 [33a] | 25 | 
CCNC(=O)[C@H]1O[C@@H](n2cnc3c(N)nc(NCCc4ccc(CCC(=O)O)cc4)nc32)[C@H](O)[C@@H]1O [CGS21680, 2-[4-(2-carboxyethyl)phenylethylamino]-5'-N-ethylcarboxiamidoadenosine] |  | Ability to replace preconditioning hypoxia (protection against injury by ninety-minute hypoxia; % cells killed, CK released) [2]: could not; Effect on protection by preconditioning hypoxia (% cells killed, CK released) [2]: attenuated the protection; 45Ca uptake ([3]; after 90-second exposure to 45Ca-containing media, CGS21680 1 μM, control 4.2±0.1, ±S.D.): 5.8 ± 0.2 nmol/mg; 45Ca uptake, CGS21680 plus nifedipine ([3]; after 90-second exposure to 45Ca, CGS21680 1 μM plus nifedipine 1 μM, control 4.2±0.1, ±S.D.): 4.4 ± 0.1 nmol/mg

SMILES | A1/A2 ratio (A2a receptor selectivity ratio) [1] | further results
COc1cc(/C=C/c2nc3c(c(=O)n(C)c(=O)n3C)n2C)cc(OC)c1OCCCCN [compound 38] | 36 | 
Cn1c(=O)c2c(nc(/C=C/c3cccc(N)c3)n2C)n(C)c1=O [22b] | 30 | 
C[C@H](Cc1ccccc1)Nc1ncnc2c1ncn2[C@@H]1O[C@H](CO)[C@@H](O)[C@H]1O [R-PIA, N^6 -R-phenyl-2-propyl adenosine] |  | Ability to replace preconditioning hypoxia (protection against injury by ninety-minute hypoxia; % cells killed, CK released) [2]: could substitute for preconditioning hypoxia and induce preconditioning
COc1cc(/C=C/c2nc3c(c(=O)n(C)c(=O)n3C)n2C)cc(OC)c1OC/C=C/CNC(=O)OC(C)(C)C [compound 42] | > 40 | 
C=CCn1c(=O)c2c(nc(/C=C/c3cc(OC)c(OC)c(OC)c3)n2C)n(CC=C)c1=O [compound 46] | 13 | 
COc1cc(/C=C/c2nc3c(c(=O)n(C)c(=O)n3C)n2C)cc(OC)c1OCCCCNC(=O)OC(C)(C)C [compound 39] | 42 | 
COc1cc(/C=C/c2nc3c(c(=O)n(C)c(=O)n3C)n2C)cc(OC)c1OC/C=C/CN [compound 40] | 28 | 
COc1ccc(/C=C/c2nc3c(c(=O)n(C)c(=O)n3C)n2C)cc1 [29b] | 44 | 
Cn1c(=O)c2c(nc(/C=C/c3cccc([N+](=O)[O-])c3)n2C)n(C)c1=O [21b] | 11 | 
CCCn1c(=O)c2c(nc(/C=C/c3cc(OC)cc(OC)c3)n2C)n(CCC)c1=O [53b] | 110 | 
Cn1c(=O)c2c(nc(/C=C/c3cccc(N(C(=O)OC(C)(C)C)C(=O)OC(C)(C)C)c3)n2C)n(C)c1=O [compound 26] | 15 | 
Cn1c(=O)c2c(nc(/C=C/c3cccc(Cl)c3)n2C)n(C)c1=O [compound 28, 8-(3-chlorostyryl)caffeine] |  | Effect on R-PIA-induced preconditioning (% cells killed, CK released) ([2]; CSC present during 5-min treatment with 10 μM R-PIA, P<0.01): enhanced the preconditioning effect; Ability to replace preconditioning hypoxia (protection against injury by ninety-minute hypoxia; % cells killed, CK released) [2]: had no effect on the extent of injury; Effect on protection by preconditioning hypoxia (% cells killed, CK released) [2]: increased protection
Cn1c(=O)c2c(nc(/C=C/c3cccc(F)c3)n2C)n(C)c1=O [27b] | 190 | 
CNC(=O)[C@H]1O[C@@H](n2cnc3c(NCc4cccc(I)c4)nc(Cl)nc32)[C@H](O)[C@@H]1O [C1-IB-MECA, 2-chloro-N^6-(3-iodobenzyl)adenosine-5'-N-methyluronamide] |  | EC (maximal effect) [2]: 0.1 µM; Ability to replace preconditioning hypoxia (protection against injury by ninety-minute hypoxia; % cells killed, CK released) [2]: can replace preconditioning hypoxia and simulate preconditioning
Nc1ncnc2c1ncn2[C@@H]1O[C@H](CO)[C@@H](O)[C@H]1O [Adenosine, adenosine] |  | Ability to replace preconditioning hypoxia (protection against injury by ninety-minute hypoxia; % cells killed, CK released) [2]: significant attenuation of the injury
COc1cc(/C=C/c2nc3c(c(=O)n(C)c(=O)n3C)n2C)cc(OC)c1OC/C=C/CNC(C)=O [compound 41] | > 50 | 
COc1cc(/C=C/c2nc3c(c(=O)n(C)c(=O)n3C)n2C)cc(OC)c1OCc1ccccc1 [compound 37] | 30 | 
